According to PubChem BioAssay (NCI):
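Test compounds were applied to cells in 96-well plates for 48 hours at 5 doses. Definition used: TGI = concentration required for complete inhibition of growth.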

Assays:
Test in all cases: growth of human tumour cells (NCI), 48 h
786-0 renal = tested on: 786-0 renal
A549 NSCLC = tested on: A549 NSCLC
ACHN renal = tested on: ACHN renal
BT-549 breast = tested on: BT-549 breast
CAKI-1 renal = tested on: CAKI-1 renal
CCRF-CEM leukemia = tested on: CCRF-CEM leukemia
COLO 205 colon = tested on: COLO 205 colon
DU-145 prostate = tested on: DU-145 prostate
EKVX NSCLC = tested on: EKVX NSCLC
HCT-116 colon = tested on: HCT-116 colon
HCT-15 colon = tested on: HCT-15 colon
HL-60(TB) leukemia = tested on: HL-60(TB) leukemia
HOP-92 NSCLC = tested on: HOP-92 NSCLC
HS 578T breast = tested on: HS 578T breast
HT29 colon = tested on: HT29 colon
IGROV1 ovarian = tested on: IGROV1 ovarian
K-562 leukemia = tested on: K-562 leukemia
KM12 colon = tested on: KM12 colon
M14 melanoma = tested on: M14 melanoma
MALME-3M melanoma = tested on: MALME-3M melanoma
MCF7 breast = tested on: MCF7 breast
MDA-MB-231 breast = tested on: MDA-MB-231 breast
MDA-MB-435 = tested on: MDA-MB-435
MDA-N = tested on: MDA-N
MOLT-4 leukemia = tested on: MOLT-4 leukemia
NCI-H226 lung = tested on: NCI-H226 lung
NCI-H23 lung = tested on: NCI-H23 lung
NCI-H460 lung = tested on: NCI-H460 lung
NCI-H522 lung = tested on: NCI-H522 lung
NCI/ADR-RES ovarian = tested on: NCI/ADR-RES ovarian
OVCAR-4 ovarian = tested on: OVCAR-4 ovarian
OVCAR-5 ovarian = tested on: OVCAR-5 ovarian
OVCAR-8 ovarian = tested on: OVCAR-8 ovarian
PC-3 prostate = tested on: PC-3 prostate
RPMI-8226 leukemia = tested on: RPMI-8226 leukemia
RXF 393 renal = tested on: RXF 393 renal
SF-268 CNS = tested on: SF-268 CNS
SF-295 CNS = tested on: SF-295 CNS
SF-539 CNS = tested on: SF-539 CNS
SK-MEL-2 melanoma = tested on: SK-MEL-2 melanoma
SK-MEL-5 melanoma = tested on: SK-MEL-5 melanoma
SK-OV-3 ovarian = tested on: SK-OV-3 ovarian
SN12C renal = tested on: SN12C renal
SNB-19 CNS = tested on: SNB-19 CNS
SNB-75 CNS = tested on: SNB-75 CNS
SR leukemia = tested on: SR leukemia
SW-620 colon = tested on: SW-620 colon
T-47D breast = tested on: T-47D breast
TK-10 renal = tested on: TK-10 renal
U251 CNS = tested on: U251 CNS
UACC-257 melanoma = tested on: UACC-257 melanoma
UACC-62 melanoma = tested on: UACC-62 melanoma
UO-31 renal = tested on: UO-31 renal
A498 renal = tested on: A498 renal
HCC-2998 colon = tested on: HCC-2998 colon
HOP-62 NSCLC = tested on: HOP-62 NSCLC
LOX IMVI melanoma = tested on: LOX IMVI melanoma
OVCAR-3 ovarian = tested on: OVCAR-3 ovarian
SK-MEL-28 melanoma = tested on: SK-MEL-28 melanoma

`O=C1c2ccccc2-c2nc(-c3cccc([N+](=O)[O-])c3)nnc21` showed a TGI (786-0 renal) of over 100 µM, a TGI (A549 NSCLC) of 98.6 µM and a TGI (ACHN renal) of 16.7 µM. The TGI (BT-549 breast) was 36.7 µM, the TGI (CAKI-1 renal) was 12.6 µM and the TGI (CCRF-CEM leukemia) was over 100 µM. It also gave a TGI (COLO 205 colon) of 12.6 µM, a TGI (DU-145 prostate) of 17 µM and a TGI (EKVX NSCLC) of 61.1 µM. It also gave a TGI (HCT-116 colon) of over 100 µM, a TGI (HCT-15 colon) of 59.9 µM and a TGI (HL-60(TB) leukemia) of 16.8 µM. For the same compound, the TGI (HOP-92 NSCLC) was over 100 µM, the TGI (HS 578T breast) was over 100 µM and the TGI (HT29 colon) was 5.43 µM. The TGI (IGROV1 ovarian) was over 100 µM, the TGI (K-562 leukemia) was over 100 µM and the TGI (KM12 colon) was over 100 µM. The TGI (M14 melanoma) was 73.2 µM, the TGI (MALME-3M melanoma) was 38.4 µM and the TGI (MCF7 breast) was over 100 µM. For the same compound, the TGI (MDA-MB-231 breast) was over 100 µM, the TGI (MDA-MB-435) was 4.05 µM and the TGI (MDA-N) was 5.49 µM. It also gave a TGI (MOLT-4 leukemia) of over 100 µM, a TGI (NCI-H226 lung) of 35.9 µM and a TGI (NCI-H23 lung) of 50.5 µM. For the same compound, the TGI (NCI-H460 lung) was 24.8 µM, the TGI (NCI-H522 lung) was over 100 µM and the TGI (NCI/ADR-RES ovarian) was 37 µM. For the same compound, the TGI (OVCAR-4 ovarian) was over 100 µM, the TGI (OVCAR-5 ovarian) was 50 µM and the TGI (OVCAR-8 ovarian) was 86.7 µM. The TGI (PC-3 prostate) was over 100 µM, the TGI (RPMI-8226 leukemia) was over 100 µM and the TGI (RXF 393 renal) was over 100 µM. The TGI (SF-268 CNS) was over 100 µM, the TGI (SF-295 CNS) was over 100 µM and the TGI (SF-539 CNS) was over 100 µM. It also gave a TGI (SK-MEL-2 melanoma) of 49.2 µM, a TGI (SK-MEL-5 melanoma) of 7.65 µM and a TGI (SK-OV-3 ovarian) of over 100 µM. It also gave a TGI (SN12C renal) of 45.7 µM, a TGI (SNB-19 CNS) of over 100 µM and a TGI (SNB-75 CNS) of 59 µM. It also gave a TGI (SR leukemia) of over 100 µM, a TGI (SW-620 colon) of 62.8 µM and a TGI (T-47D breast) of over 100 µM. It also gave a TGI (TK-10 renal) of 39.5 µM, a TGI (U251 CNS) of over 100 µM and a TGI (UACC-257 melanoma) of 13.3 µM. The TGI (UACC-62 melanoma) was 32 µM and the TGI (UO-31 renal) was 42.2 µM.
`Cc1cn(C2CC(n3cc(Cn4cc(Br)c(=O)[nH]c4=O)nn3)C(CO)O2)c(=O)[nH]c1=O` (stereo not given) showed a TGI (786-0 renal) of over 100 µM, a TGI (A498 renal) of over 100 µM and a TGI (A549 NSCLC) of over 100 µM. The TGI (ACHN renal) was over 100 µM, the TGI (BT-549 breast) was over 100 µM and the TGI (CAKI-1 renal) was over 100 µM. The TGI (CCRF-CEM leukemia) was over 100 µM, the TGI (COLO 205 colon) was over 100 µM and the TGI (DU-145 prostate) was over 100 µM. The TGI (EKVX NSCLC) was over 100 µM, the TGI (HCC-2998 colon) was over 100 µM and the TGI (HCT-116 colon) was over 100 µM. For the same compound, the TGI (HCT-15 colon) was over 100 µM, the TGI (HOP-62 NSCLC) was over 100 µM and the TGI (HOP-92 NSCLC) was over 100 µM. It also gave a TGI (HS 578T breast) of over 100 µM, a TGI (IGROV1 ovarian) of over 100 µM and a TGI (KM12 colon) of over 100 µM. It also gave a TGI (LOX IMVI melanoma) of over 100 µM, a TGI (M14 melanoma) of over 100 µM and a TGI (MALME-3M melanoma) of over 100 µM. For the same compound, the TGI (MCF7 breast) was over 100 µM, the TGI (MDA-MB-231 breast) was over 100 µM and the TGI (MDA-MB-435) was over 100 µM. It also gave a TGI (MDA-N) of over 100 µM, a TGI (MOLT-4 leukemia) of over 100 µM and a TGI (NCI-H23 lung) of over 100 µM. It also gave a TGI (NCI/ADR-RES ovarian) of over 100 µM, a TGI (OVCAR-3 ovarian) of over 100 µM and a TGI (OVCAR-4 ovarian) of over 100 µM. For the same compound, the TGI (OVCAR-5 ovarian) was over 100 µM, the TGI (OVCAR-8 ovarian) was over 100 µM and the TGI (PC-3 prostate) was over 100 µM. The TGI (RPMI-8226 leukemia) was over 100 µM, the TGI (RXF 393 renal) was over 100 µM and the TGI (SF-268 CNS) was over 100 µM. The TGI (SF-295 CNS) was over 100 µM, the TGI (SF-539 CNS) was over 100 µM and the TGI (SK-MEL-2 melanoma) was over 100 µM. It also gave a TGI (SK-MEL-28 melanoma) of over 100 µM, a TGI (SK-MEL-5 melanoma) of over 100 µM and a TGI (SK-OV-3 ovarian) of over 100 µM. The TGI (SN12C renal) was over 100 µM, the TGI (SNB-19 CNS) was over 100 µM and the TGI (SNB-75 CNS) was over 100 µM. It also gave a TGI (SW-620 colon) of over 100 µM, a TGI (T-47D breast) of over 100 µM and a TGI (TK-10 renal) of over 100 µM. The TGI (U251 CNS) was over 100 µM, the TGI (UACC-257 melanoma) was over 100 µM and the TGI (UACC-62 melanoma) was over 100 µM. The TGI (UO-31 renal) was over 100 µM.
